Test results as given in patent US12707803B2, “Light-emitting device” (Semiconductor Energy Laboratory Co., Ltd., priority 2022, dated 2026).
Values after ≈ are worked out from the molar mass of the structure shown.

Assay: water solubility of materials added to electron-injection buffer region
Type: physicochemical
Text: The table below lists the number of hydrophilic hpp groups, the number of hydrophobic tert-butyl groups, and water solubility of the materials added to the electron-injection buffer regions 914 in the light-emitting devices 7A to 7K.

solubility: 58 to 62 µg/mL (≈ 82.5 to 88.2 µM)
Structure (SMILES): CC(C)(C)c1ccc2c(c1)C1(c3cc(N4CCCN5CCCN=C54)ccc3-c3ccc(N4CCCN5CCCN=C54)cc31)c1cc(C(C)(C)C)ccc1-2 [2′,7′tBu-2,7hpp2SF, 1,1′-(2′,7′-di-tert-butyl-9,9′-spirobi[9H-fluorene]-2,7-diyl)bis(1,3,4,6,7,8-hexahydro-2H-pyrimido[1,2-a]pyrimidine)]
